The target in experiment [1] is purified human farnesyl protein transferase (Homo sapiens, UniProt P49354+P49356). Kind of experiment: FPT activity: transfer of [3H] farnesyl from [3H] farnesyl pyrophosphate to biotinylated H-ras peptide (SPA). Format: biochemical. To be noted: 0.03 nM enzyme, 37° C., 60 minutes. As to the method:
FPT activity was determined by measuring the transfer of [^3H] farnesyl from [^3H] farnesyl pyrophosphate to a biotinylated peptide derived from the C-terminus of H-ras (biotin-CVLS). The reaction mixture contains: 50 mM Tris pH7.7, 5 mM MgCl2, 5 μM Zn^++, 5 mM DTT, 0.1% Triton-X, 0.05 μM peptide, 0.03 nM purified human farnesyl protein transferase, 0.180 μM [^3H] farnesyl pyrophosphate, plus the indicated concentration of tricyclic compound or vehicle control in a total volume of 100 μl. The reaction was incubated in a yortemp shaking incubator at 37° C., 45 RPM for 60 minutes and stopped with 150 μl of 0.25 M EDTA containing 0.5% BSA and 1.3 mg/ml Streptavidin SPA beads. Radioactivity was measured in a Wallach 1450 Microbeta liquid scintillation counter. Percent inhibition was calculated relative to the vehicle control.

The test system of a further experiment is Human tumor cells. As to the kind of experiment: Soft Agar Assay (anchorage-independent growth). In kind it is cell-based. To be noted: colony outgrowth 10-16 days, MTT stain. As to the method: Anchorage-independent growth is a characteristic of tumorigenic cell lines. Human tumor cells can be suspended in growth medium containing 0.3% agarose and an indicated concentration of a famesyl transferase inhibitor. The solution can be overlayed onto growth medium solidified with 0.6% agarose containing the same concentration of farnesyl transferase inhibitor as the top layer. After the top layer is solidified, plates can be incubated for 10-16 days at 37° C. under 5% CO2 to allow colony outgrowth. After incubation, the colonies can be stained by overlaying the agar with a solution of MTT (3-[4,5-dimethyl-thiazol-2-yl]-2,5-diphenyltetrazolium bromide, Thiazolyl blue) (1 mg/mL in PBS). Colonies can be counted and the IC50's can be determined.

Several values for one entry are separate records, joined by “and”; a condition that tells them apart may be missing. Equal values may be shown once.

In general, IC50 refers to the concentration at which inhibition is half-maximal. A high value points to weaker potency. For the compound `Cn1cncc1[C@H](NC(=O)OC1(C)CC1)C1=Cc2cccnc2[C@@H](N2CCN(C(=O)OC3(C)CC3)CC2)c2ccc(Cl)cc21` [Compound 108.1], the IC50 in experiment [1] is 500 to 5000 pM and 1500 pM; in the experiment on Human tumor cells, less than 500 pM.

Consider `Cn1cncc1[C@H](NC(=O)OC1(C2CC2)CC1)C1=Cc2cccnc2[C@@H](N2CCN(C(=O)OC3CCCC3)CC2)c2ccc(Cl)cc21` [Compound 112.1, 4-{6-[(Bicyclopropyl-1-yloxycarbonylamino)-(3-methyl-3H-imidazol-4-yl)-methyl]-8-chloro-11H-benzo[5,6]cyclohepta[1,2-b]pyridin-11-yl}-piperazine-1-carboxylic acid cyclopentyl ester], for which the IC50 in experiment [1] was 500 to 5000 pM.

Turning to `CC(C)C1(OC(=O)N2CCN([C@H]3c4ccc(Cl)cc4C([C@@H](NC(=O)OC4(C)CC4)c4cncn4C)=Cc4cccnc43)CC2)CC1` [Compound 118.1], in experiment [1], the IC50 fell in the range of 500 to 5000 pM.

For `COC1(C(=O)N[C@H](C2=Cc3cccnc3[C@@H](N3CCN(C(=O)OCC(C)(C)C)CC3)c3ccc(Cl)cc32)c2cncn2C)CC1` [Compound 119.1], the IC50 in experiment [1] lay in the range of 500 to 5000 pM.

`COC1(C(=O)N[C@H](C2=Cc3cccnc3[C@@H](N3CCN(C(=O)OCC4(C)CC4)CC3)c3ccc(Cl)cc32)c2cncn2C)CC1` [Compound 120.1] displayed an IC50 in experiment [1] of 500 to 5000 pM.

In the case of `COCC(=O)N[C@H](C1=Cc2cccnc2[C@@H](N2CCN(C(=O)OC(C)C)CC2)c2ccc(Cl)cc21)c1cncn1C` [Compound 136.1], the IC50 was 500 to 5000 pM and 600 pM in experiment [1]; 600 pM with Human tumor cells.

In experiment [1], `COC1(C(=O)N[C@H](C2=Cc3cccnc3[C@@H](N3CCN(C(=O)OC(C)C)CC3)c3ccc(Cl)cc32)c2cncn2C)CC1` [Compound 152.1, 4-{8-Chloro-6-[[(1-methoxy-cyclopropanecarbonyl)-amino]-(3-methyl-3H-imidazol-4-yl)-methyl]-11H-benzo[5.6]cyclohepta[1,2-b]pyridin-11-yl}-piperazine-1-carboxylic acid isopropyl ester] returned an IC50 of 500 to 5000 pM.

Values taken from US7557107B2, “Farnesyl protein transferase inhibitors as antitumor agents” (Schering Coporation, priority 2003, dated 2009).
